Assay results as given in the supplement of paper PMC11061612.

Experiments:
Test in all cases: Bliss excess, mean over the matrix (fraction); higher = more synergy
[1] = tested on: 22RV1 (Prostate Carcinoma)
Outline: (§1)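 Bliss excess equals the observed combination effect minus the expected value EA + EB − EA·EB, where EA and EB are the effects of each agent alone. Combination Emax is the second-highest inhibition within the matrix. Inhibition was scaled from CellTiter-Glo 2.0 luminescence, with 0 set by vehicle wells and 1 by blank wells, after 72 hours of two-drug dosing of cells plated in 1536-well plates.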

[2] = tested on: IM-9 (Non-Cancerous)
Outline: as §1

[3] = tested on: JHH-2 (Hepatocellular Carcinoma)
Outline: as §1

[4] = tested on: JHU-022 (Oral Cavity Carcinoma)
Outline: as §1

[5] = tested on: KP-N-YN (Neuroblastoma)
Outline: as §1

[6] = tested on: KYSE-220 (Esophageal Squamous Cell Carcinoma)
Outline: as §1

[7] = tested on: LU-165 (Small Cell Lung Carcinoma)
Outline: as §1

[8] = tested on: NCI-H2087 (Lung Adenocarcinoma)
Outline: as §1

[9] = tested on: NB13 (Neuroblastoma)
Outline: as §1

[10] = tested on: LS-411N (Colorectal Carcinoma)
Outline: as §1

Row | SMILES | Bliss excess [1] | Bliss excess [2] | Bliss excess [3] | Bliss excess [4] | Bliss excess [5] | Bliss excess [6] | Bliss excess [7] | Bliss excess [8] | Bliss excess [9] | Bliss excess [10]
1 | O=C(c1cc(Cc2n[nH]c(=O)c3ccccc23)ccc1F)N1CCN(C(=O)C2CC2)CC1 [Olaparib] + CN(CC[C@H](CSC1=CC=CC=C1)NC2=C(C=C(C=C2)S(=O)(=O)NC(=O)C3=CC=C(C=C3)N4CCC(CC4)[C@H](C5=CC=CC=C5C6=CC=C(C=C6)Cl)O)S(=O)(=O)C(F)(F)F)CCO [AZD4320] (first compound max 10 µM, 7x7, partner max 1 µM) | -0.0864 | 0.141 | -0.0363 | -0.0411 | 0.0322 | -0.0169 | -0.008 | -0.0215 |  | 
2 | C[C@@H]1COCCN1c1cc(C2([S@](C)(=N)=O)CC2)nc(-c2ccnc3[nH]ccc23)n1 [AZD6738] + Nc1ccn([C@@H]2O[C@H](CO)[C@@H](O)C2(F)F)c(=O)n1 [Gemcitabine] (first compound max 10 µM, 7x7, partner max 0.3 µM) | -0.0011 | -0.0189 | 0.0069 | 0.0407 |  | -0.0686 | -0.018 | 0.0743 |  | 
3 | Cc1c2c(nn1C)CSCc1cc(n(C)n1)CSc1cc(c3ccccc3c1)OCCCc1c(C(=O)O)n(C)c3c-2c(Cl)ccc13 [AZD5991] + CS(=O)(=O)CCNCc1ccc(-c2ccc3ncnc(Nc4ccc(OCc5cccc(F)c5)c(Cl)c4)c3c2)o1 [Lapatinib] (first compound max 1 µM, 7x7, partner max 10 µM) | -0.0131 | 0.0138 | -0.063 | 0.0807 | 0.0426 | 0.0157 | -0.125 | 0.0165 | -0.0239 | 
4 | O=C(c1cc(Cc2n[nH]c(=O)c3ccccc23)ccc1F)N1CCN(C(=O)C2CC2)CC1 [Olaparib] + Cc1c2c(nn1C)CSCc1cc(n(C)n1)CSc1cc(c3ccccc3c1)OCCCc1c(C(=O)O)n(C)c3c-2c(Cl)ccc13 [AZD5991] (first compound max 10 µM, 7x7, partner max 1 µM) | -0.0012 | 0.0865 | -0.0539 | -0.052 | -0.068 | -0.0573 | -0.0374 | -0.0327 |  | 
5 | C[C@@H]1COCCN1c1cc(C2([S@](C)(=N)=O)CC2)nc(-c2ccnc3[nH]ccc23)n1 [AZD6738] + C1CC(C1)(C(=O)[O-])C(=O)[O-].N.N.[Pt+2] [Carboplatin] (first compound max 10 µM, 7x7, partner max 10 µM) | -0.0138 | 0.0081 | -0.0309 | -0.0325 | -0.0177 | -0.0021 | -0.0517 | -0.0344 | -0.0955 | 
6 | Cc1c2c(nn1C)CSCc1cc(n(C)n1)CSc1cc(c3ccccc3c1)OCCCc1c(C(=O)O)n(C)c3c-2c(Cl)ccc13 [AZD5991] + CC(=O)O[C@H]1C(=O)[C@@]2(C)[C@H]([C@H](OC(=O)c3ccccc3)[C@]3(O)C[C@H](OC(=O)[C@H](O)[C@@H](NC(=O)c4ccccc4)c4ccccc4)C(C)=C1C3(C)C)[C@]1(OC(C)=O)CO[C@@H]1C[C@@H]2O [Paclitaxel] (first compound max 1 µM, 7x7, partner max 3 µM) | 0.0731 | 0.0008 | 0.017 | 0.0286 | -0.0275 | -0.006 | -0.0443 | 0.0128 |  | 
7 | CS(=O)(=O)CCNCc1ccc(-c2ccc3ncnc(Nc4ccc(OCc5cccc(F)c5)c(Cl)c4)c3c2)o1 [Lapatinib] + Cn1cnc2c(F)c(Nc3ccc(Br)cc3Cl)c(C(=O)NOCCO)cc21 [Selumetinib] (first compound max 10 µM, 7x7, partner max 10 µM) | -0.045 | -0.0826 | -0.0273 | -0.0636 | -0.0666 | -0.0056 | -0.0543 | -0.0455 | -0.0311 | 
8 | CS(=O)(=O)CCNCc1ccc(-c2ccc3ncnc(Nc4ccc(OCc5cccc(F)c5)c(Cl)c4)c3c2)o1 [Lapatinib] + NC1(c2ccc(-c3nc4ccn5c(=O)[nH]nc5c4cc3-c3ccccc3)cc2)CCC1 [MK-2206] (first compound max 10 µM, 7x7, partner max 10 µM) | -0.0139 | 0.0096 | -0.0371 | -0.0585 | 0.0876 | -0.0099 | -0.0522 | -0.0221 | -0.0348 | -0.0339
9 | C=CCn1c(=O)c2cnc(Nc3ccc(N4CCN(C)CC4)cc3)nc2n1-c1cccc(C(C)(C)O)n1 [AZD1775] + Nc1ccn([C@@H]2O[C@H](CO)[C@@H](O)C2(F)F)c(=O)n1 [Gemcitabine] (first compound max 1 µM, partner max 0.3 µM) | -0.0225 | 0.0398 | 0.0264 | 0.0276 |  | 0.0029 | 0.0004 | 0.0247 |  | 
10 | C=CCn1c(=O)c2cnc(Nc3ccc(N4CCN(C)CC4)cc3)nc2n1-c1cccc(C(C)(C)O)n1 [AZD1775] + CCc1c2c(nc3ccc(O)cc13)-c1cc3c(c(=O)n1C2)COC(=O)[C@]3(O)CC [SN-38] (first compound max 1 µM, partner max 0.3 µM) | -0.0464 | 0.0003 | 0.106 | -0.0638 | -0.0339 | -0.0563 | -0.0771 | 0.0067 | -0.0592 | 
